Columns and labels:
Test in all cases: relative viability (nuclei count vs DMSO), 5 days (fraction); higher = more cells survive
[1] = compound: Cn1c(Nc2ccc(C(F)(F)F)cc2)nc2cc(Oc3ccnc(-c4ncc(C(F)(F)F)[nH]4)c3)ccc21 [RAF265] + Nc1ncn([C@H]2C[C@H](O)[C@@H](CO)O2)c(=O)n1 [Decitabine] (partner 2 µM)
Method in brief: (§1)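 Cells from lung cancer lines were seeded into 1536-well plates and, one day later, dosed by pin tool. Treatments were either a single drug or a fixed dose of an anchor drug with five library-drug doses (not always all listed) in √10 steps. After 5 days, nuclei were stained in a one-step fixation (final 0.05% Triton X-100, 1% formaldehyde, 1 ug/ml Hoechst) and counted on 4× images, and relative viability is the treated-to-vehicle nuclei ratio, as the median of duplicate plates.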

[2] = compound: Cn1c(Nc2ccc(C(F)(F)F)cc2)nc2cc(Oc3ccnc(-c4ncc(C(F)(F)F)[nH]4)c3)ccc21 [RAF265] + NC(=O)Nc1cc(-c2cccc(F)c2)sc1C(=O)N[C@H]1CCCNC1 [AZD7762] (partner 0.2 µM)
Method in brief: as §1

[3] = compound: Cn1c(Nc2ccc(C(F)(F)F)cc2)nc2cc(Oc3ccnc(-c4ncc(C(F)(F)F)[nH]4)c3)ccc21 [RAF265] + O=C(CCCCCCC(=O)Nc1ccccc1)NO [Vorinostat] (partner 1 µM)
Method in brief: as §1

[4] = compound: Cc1ccc(-n2nc(C(C)(C)C)cc2NC(=O)Nc2ccc(OCCN3CCOCC3)c3ccccc23)cc1 [Doramapimod] + CC1(C)CCC(c2ccc(Cl)cc2)=C(CN2CCN(c3ccc(C(=O)NS(=O)(=O)c4ccc(N[C@H](CCN5CCOCC5)CSc5ccccc5)c(S(=O)(=O)C(F)(F)F)c4)cc3)CC2)C1 [Navitoclax] (partner 0.5 µM)
Method in brief: as §1

Row | Cell Line | relative viability ([1]; first compound 0.01 µM) | relative viability ([1]; first compound 0.03162 µM) | relative viability ([1]; first compound 0.1 µM) | relative viability ([1]; first compound 0.3162 µM) | relative viability ([1]; first compound 1 µM) | relative viability ([2]; first compound 0.01 µM) | relative viability ([2]; first compound 0.03162 µM) | relative viability ([2]; first compound 0.1 µM) | relative viability ([2]; first compound 0.3162 µM) | relative viability ([2]; first compound 1 µM) | relative viability ([3]; first compound 0.01 µM) | relative viability ([3]; first compound 0.03162 µM) | relative viability ([3]; first compound 0.1 µM) | relative viability ([3]; first compound 0.3162 µM) | relative viability ([3]; first compound 1 µM) | relative viability ([4]; first compound 0.02 µM) | relative viability ([4]; first compound 0.06325 µM) | relative viability ([4]; first compound 0.2 µM) | relative viability ([4]; first compound 0.6325 µM) | relative viability ([4]; first compound 2 µM)
1 | NCI-H358 | 0.25 | 0.206 | 0.164 | 0.15 | 0.154 | 0.46 | 0.515 | 0.491 | 0.279 | 0.184 | 0.744 | 0.564 | 0.613 | 0.459 | 0.178 |  |  |  |  | 
2 | H3255 | 0.666 | 0.564 | 0.682 | 0.198 | 0.43 | 0.931 | 1.01 | 0.877 |  | 0.623 | 0.889 | 0.748 | 0.804 | 0.231 | 0.413 | 0.531 | 0.586 | 0.553 | 0.636 | 0.479
3 | NCI-H2228 |  |  |  |  |  |  |  |  |  |  | 0.554 | 0.653 | 0.52 | 0.324 | 0.275 | 0.669 | 0.786 | 1.05 | 0.913 | 0.605
4 | CAL-12T |  |  |  |  |  | 0.56 | 0.631 | 0.678 | 0.598 | 0.504 | 0.781 | 0.825 | 0.61 | 0.606 | 0.372 | 1.14 | 1.14 | 1.14 | 1.48 | 1.03
5 | A-427 | 0.549 | 0.507 | 0.514 | 0.37 | 0.238 | 0.798 | 0.746 | 0.641 | 0.448 | 0.247 | 0.89 | 0.829 | 0.892 | 0.733 | 0.423 | 1.02 | 1.01 | 1.02 |  | 1.08
6 | HARA | 0.652 | 0.468 | 0.53 | 0.426 | 0.414 | 0.315 | 0.128 | 0.303 | 0.419 | 0.221 | 0.454 | 0.64 | 0.537 | 0.546 | 0.192 | 1.1 | 1.13 | 1.12 | 1.11 | 1.07
7 | NCI-H1793 | 0.554 | 0.463 | 0.438 | 0.332 | 0.277 | 0.413 | 0.572 | 0.332 | 0.197 | 0.132 | 0.865 | 0.697 | 0.633 | 0.201 | 0.311 | 0.545 | 0.303 | 0.378 | 0.416 | 0.502
8 | NCI-H2009 | 0.43 | 0.376 | 0.377 | 0.459 | 0.335 |  |  |  |  |  | 0.744 | 0.649 | 0.757 | 0.761 | 0.512 | 1.25 | 1.18 | 1.2 | 1.29 | 1.19
9 | ABC-1 | 1.16 | 1.04 | 1.07 | 1.17 | 0.979 | 0.993 | 0.771 | 0.798 | 1.06 | 0.47 | 1.34 | 0.853 | 1.3 | 0.982 | 0.644 |  |  |  |  | 
10 | IA-LM |  |  |  |  |  |  |  |  |  |  | 1.06 | 0.779 | 0.895 | 0.925 | 0.849 | 0.676 | 0.567 | 0.804 | 0.807 | 0.577

Reference: the supplement of paper PMC10307832
